Legend:
Assay in all cases: relative viability (nuclei count vs DMSO), 5 days (fraction); higher = more cells survive
ABC-1 = test system: ABC-1
In short: (§1)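 A single step with final 0.05% Triton X-100, 1% formaldehyde and 1 ug/ml Hoechst fixed the cells and stained nuclei 5 days after treatment. Lung cancer cell lines in 1536-well plates had been treated by pin tool the day after seeding with one drug alone or a fixed anchor-drug dose plus five library-drug doses (not always all listed) in √10 steps, and nuclei were counted on 4× images. Relative viability is the ratio of nuclei in treated wells to nuclei in vehicle wells, taken as the median of duplicate plates.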

CAL-12T = test system: CAL-12T
In short: as §1

COR-L23 = test system: COR-L23
In short: as §1

EKVX = test system: EKVX
In short: as §1

H3255 = test system: H3255
In short: as §1

HCC-15 = test system: HCC-15
In short: as §1

HCC-827 = test system: HCC-827
In short: as §1

LK-2 = test system: LK-2
In short: as §1

NCI-H1355 = test system: NCI-H1355
In short: as §1

NCI-H1437 = test system: NCI-H1437
In short: as §1

NCI-H1563 = test system: NCI-H1563
In short: as §1

NCI-H1650 = test system: NCI-H1650
In short: as §1

NCI-H1651 = test system: NCI-H1651
In short: as §1

NCI-H1734 = test system: NCI-H1734
In short: as §1

NCI-H2228 = test system: NCI-H2228
In short: as §1

NCI-H2405 = test system: NCI-H2405
In short: as §1

NCI-H322M = test system: NCI-H322M
In short: as §1

NCI-H520 = test system: NCI-H520
In short: as §1

NCI-H661 = test system: NCI-H661
In short: as §1

PC-14 = test system: PC-14
In short: as §1

PC-3 [JPC-3] = test system: PC-3 [JPC-3]
In short: as §1

RERF-LC-KJ = test system: RERF-LC-KJ
In short: as §1

SK-MES-1 = test system: SK-MES-1
In short: as §1

SW 1573 = test system: SW 1573
In short: as §1

For `CC(C)Oc1cc(Nc2nc(N[C@@H](C)c3ccc(F)cn3)ncc2Cl)n[nH]1` [AZ23] + CS(=O)(=O)N1CCN(Cc2cc3nc(-c4cccc5[nH]ncc45)nc(N4CCOCC4)c3s2)CC1 [Pictilisib] (partner 1 µM), the relative viability (ABC-1; first compound 0.01 µM) was 0.634, the relative viability (ABC-1; first compound 0.03162 µM) was 0.909 and the relative viability (ABC-1; first compound 0.3162 µM) was 0.841. It also gave a relative viability (CAL-12T; first compound 0.03162 µM) of 0.418, a relative viability (CAL-12T; first compound 0.3162 µM) of 0.406 and a relative viability (COR-L23; first compound 0.01 µM) of 0.587. The relative viability (COR-L23; first compound 0.03162 µM) was 0.947, the relative viability (COR-L23; first compound 0.3162 µM) was 0.862 and the relative viability (EKVX; first compound 0.01 µM) was 0.481. It also gave a relative viability (EKVX; first compound 0.03162 µM) of 0.466, a relative viability (EKVX; first compound 0.3162 µM) of 0.444 and a relative viability (H3255; first compound 0.01 µM) of 0.484. The relative viability (H3255; first compound 0.03162 µM) was 0.519, the relative viability (H3255; first compound 0.3162 µM) was 0.494 and the relative viability (HCC-15; first compound 0.01 µM) was 0.968. It also gave a relative viability (HCC-15; first compound 0.03162 µM) of 0.73, a relative viability (HCC-15; first compound 0.3162 µM) of 0.782 and a relative viability (HCC-827; first compound 0.01 µM) of 1.11. The relative viability (HCC-827; first compound 0.03162 µM) was 0.978, the relative viability (HCC-827; first compound 0.3162 µM) was 1.11 and the relative viability (LK-2; first compound 0.03162 µM) was 0.499. It also gave a relative viability (LK-2; first compound 0.3162 µM) of 0.59, a relative viability (NCI-H1355; first compound 0.01 µM) of 0.367 and a relative viability (NCI-H1355; first compound 0.03162 µM) of 0.46. The relative viability (NCI-H1355; first compound 0.3162 µM) was 0.401, the relative viability (NCI-H1437; first compound 0.01 µM) was 0.374 and the relative viability (NCI-H1437; first compound 0.03162 µM) was 0.389. For the same compound, the relative viability (NCI-H1437; first compound 0.3162 µM) was 0.46, the relative viability (NCI-H1563; first compound 0.01 µM) was 0.682 and the relative viability (NCI-H1563; first compound 0.03162 µM) was 0.653. It also gave a relative viability (NCI-H1563; first compound 0.3162 µM) of 0.674, a relative viability (NCI-H1650; first compound 0.01 µM) of 0.553 and a relative viability (NCI-H1650; first compound 0.03162 µM) of 0.585. For the same compound, the relative viability (NCI-H1650; first compound 0.3162 µM) was 0.514, the relative viability (NCI-H1651; first compound 0.01 µM) was 0.443 and the relative viability (NCI-H1651; first compound 0.03162 µM) was 0.542. For the same compound, the relative viability (NCI-H1651; first compound 0.3162 µM) was 0.665, the relative viability (NCI-H1734; first compound 0.01 µM) was 0.429 and the relative viability (NCI-H1734; first compound 0.03162 µM) was 0.543. The relative viability (NCI-H1734; first compound 0.3162 µM) was 0.487, the relative viability (NCI-H2228; first compound 0.01 µM) was 0.523 and the relative viability (NCI-H2228; first compound 0.03162 µM) was 0.346. The relative viability (NCI-H2228; first compound 0.3162 µM) was 0.394, the relative viability (NCI-H2405; first compound 0.01 µM) was 0.412 and the relative viability (NCI-H2405; first compound 0.03162 µM) was 0.575. It also gave a relative viability (NCI-H2405; first compound 0.3162 µM) of 0.429, a relative viability (NCI-H322M; first compound 0.01 µM) of 0.477 and a relative viability (NCI-H322M; first compound 0.03162 µM) of 0.497. It also gave a relative viability (NCI-H322M; first compound 0.3162 µM) of 0.561, a relative viability (NCI-H520; first compound 0.01 µM) of 0.327 and a relative viability (NCI-H520; first compound 0.03162 µM) of 0.309. It also gave a relative viability (NCI-H520; first compound 0.3162 µM) of 0.304, a relative viability (NCI-H661; first compound 0.01 µM) of 0.402 and a relative viability (NCI-H661; first compound 0.03162 µM) of 0.446. For the same compound, the relative viability (NCI-H661; first compound 0.3162 µM) was 0.423, the relative viability (PC-14; first compound 0.01 µM) was 0.757 and the relative viability (PC-14; first compound 0.03162 µM) was 0.689. The relative viability (PC-14; first compound 0.3162 µM) was 0.739, the relative viability (PC-3 [JPC-3]; first compound 0.01 µM) was 0.807 and the relative viability (PC-3 [JPC-3]; first compound 0.03162 µM) was 0.833. The relative viability (PC-3 [JPC-3]; first compound 0.3162 µM) was 0.807, the relative viability (RERF-LC-KJ; first compound 0.01 µM) was 0.546 and the relative viability (RERF-LC-KJ; first compound 0.03162 µM) was 0.507. For the same compound, the relative viability (RERF-LC-KJ; first compound 0.3162 µM) was 0.502, the relative viability (SK-MES-1; first compound 0.01 µM) was 0.329 and the relative viability (SK-MES-1; first compound 0.03162 µM) was 0.358. It also gave a relative viability (SK-MES-1; first compound 0.3162 µM) of 0.387, a relative viability (SW 1573; first compound 0.01 µM) of 0.674 and a relative viability (SW 1573; first compound 0.03162 µM) of 0.606. It also gave a relative viability (SW 1573; first compound 0.3162 µM) of 0.455.
